Values of other authors, collected in US20250311736A1, “SEED TREATMENT METHODS FOR INCREASING YIELD IN CROP PLANTS” (BAYER AKTIENGESELLSCHAFT, priority 2021, published 2025).

Tested on: plants
Conditions: Tavares et al., 2011; Suwitchayanon et al., 2019

## O=C(/C=C/C=C/c1ccc2c(c1)OCO2)N1CCCCC1 [piperine]
  phytotoxic effect on plants (inhibits their growth): phytotoxic effect
